{
  "source": "ChEMBL document CHEMBL1130663",
  "about": "“N-substituted octahydro-4a-(3-hydroxyphenyl)-10a-methyl-benzo[g]isoquinolines are opioid receptor pure antagonists” (Bioorg Med Chem Lett, 1998)",
  "key": {"[1]": {"molecular_target": "T1, Mu-type opioid receptor (Cavia porcellus, UniProt P97266)", "T1 sequence (P97266 whole entry)": "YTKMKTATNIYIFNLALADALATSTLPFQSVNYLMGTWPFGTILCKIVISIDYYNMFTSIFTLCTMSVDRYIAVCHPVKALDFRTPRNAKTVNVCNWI", "assay": "Binding affinity was determined against Mu opioid receptor using [3H]-Naltrexone as radioligand"}, "[2]": {"molecular_target": "T1, Mu-type opioid receptor", "assay": "Compound was tested for the inhibition of [35S]GTP-gamma-S, binding in Guinea pig Caudate stimulated by the opioid receptor agonist Mu-DAMGO", "assay_type": "functional"}, "[3]": {"molecular_target": "T2, Kappa-type opioid receptor (Cavia porcellus, UniProt P41144)", "T2 sequence (P41144 whole entry)": "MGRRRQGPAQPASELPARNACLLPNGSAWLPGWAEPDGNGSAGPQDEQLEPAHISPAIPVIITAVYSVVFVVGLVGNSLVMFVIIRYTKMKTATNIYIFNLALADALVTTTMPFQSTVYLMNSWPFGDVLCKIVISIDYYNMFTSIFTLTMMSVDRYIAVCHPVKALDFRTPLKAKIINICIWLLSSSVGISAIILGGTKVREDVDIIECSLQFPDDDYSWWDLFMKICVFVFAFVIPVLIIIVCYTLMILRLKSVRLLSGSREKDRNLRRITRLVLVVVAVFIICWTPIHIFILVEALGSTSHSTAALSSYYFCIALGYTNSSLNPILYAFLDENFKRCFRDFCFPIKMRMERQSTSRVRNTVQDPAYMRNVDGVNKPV", "assay": "Binding affinity was determined as ability to displace [3H]-U-69, radioligand from Opioid receptor kappa 1"}, "[4]": {"molecular_target": "T2, Kappa-type opioid receptor", "assay": "Compound was tested for the inhibition of [35S]GTP-gamma-S, binding to Opioid receptor kappa 1", "assay_type": "functional"}, "[5]": {"molecular_target": "Delta-type opioid receptor (Rattus norvegicus, UniProt P33533)", "sequence (P33533 whole entry)": "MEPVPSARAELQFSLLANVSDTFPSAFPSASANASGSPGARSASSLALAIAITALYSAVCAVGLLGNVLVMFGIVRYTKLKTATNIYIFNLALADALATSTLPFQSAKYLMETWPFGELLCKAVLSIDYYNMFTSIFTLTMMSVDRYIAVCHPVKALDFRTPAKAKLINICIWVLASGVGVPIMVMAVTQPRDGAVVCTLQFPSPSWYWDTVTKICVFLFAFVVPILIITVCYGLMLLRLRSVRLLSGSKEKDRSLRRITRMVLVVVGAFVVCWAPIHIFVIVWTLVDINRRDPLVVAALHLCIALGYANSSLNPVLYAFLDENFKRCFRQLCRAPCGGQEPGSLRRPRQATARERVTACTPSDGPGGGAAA", "assay": "Binding affinity was determined as ability to displace [3H]DADLE radioligand from Opioid receptor delta 1"}, "[6]": {"molecular_target": "Mu-type opioid receptor (Rattus norvegicus, UniProt P33535)", "sequence (P33535 whole entry)": "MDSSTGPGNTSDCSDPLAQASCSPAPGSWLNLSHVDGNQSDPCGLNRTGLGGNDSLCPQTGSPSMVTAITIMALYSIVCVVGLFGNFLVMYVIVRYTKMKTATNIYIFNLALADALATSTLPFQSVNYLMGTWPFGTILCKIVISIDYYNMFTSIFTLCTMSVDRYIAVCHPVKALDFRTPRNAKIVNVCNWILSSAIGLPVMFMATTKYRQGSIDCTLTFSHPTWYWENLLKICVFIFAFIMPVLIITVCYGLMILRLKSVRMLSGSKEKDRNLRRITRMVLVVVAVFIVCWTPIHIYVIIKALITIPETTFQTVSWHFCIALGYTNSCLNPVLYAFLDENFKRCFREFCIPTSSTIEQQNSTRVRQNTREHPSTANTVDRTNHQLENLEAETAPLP", "assay": "Binding affinity was determined as ability to displace [3H]DAMGO radioligand from Mu opioid receptor"}, "[7]": {"molecular_target": "T2, Kappa-type opioid receptor", "assay": "Compound was tested for the inhibition of [35S]GTP-gamma-S, binding Opioid receptor kappa 1", "assay_type": "functional"}},
  "data": [
    {"compound": "C[C@H]1CN(C)CC[C@@]1(C)c1cccc(O)c1", "values": [
      {"measurement": "Ki", "setting": "[1]", "result": 80, "unit": "nM"}
    ]},
    {"compound": "CN1CC[C@]2(c3cccc(O)c3)Cc3ccccc3C[C@]2(C)C1", "values": [
      {"measurement": "Ki", "setting": "[2]", "result": 119, "unit": "nM"},
      {"measurement": "Ki", "setting": "[3]", "result": 166, "unit": "nM"},
      {"measurement": "Ki", "setting": "[4]", "result": 52.6, "unit": "nM"},
      {"measurement": "Ki", "setting": "[5]", "result": "> 5710", "unit": "nM"},
      {"measurement": "Ki", "setting": "[6]", "result": 297, "unit": "nM"}
    ]},
    {"compound": "C[C@]12Cc3ccccc3C[C@@]1(c1cccc(O)c1)CCN(CCc1ccccc1)C2", "values": [
      {"measurement": "Ki", "setting": "[2]", "result": 10, "unit": "nM"},
      {"measurement": "Ki", "setting": "[3]", "result": 9.8, "unit": "nM"},
      {"measurement": "Ki", "setting": "[5]", "result": 1270, "unit": "nM"},
      {"measurement": "Ki", "setting": "[6]", "result": 11.2, "unit": "nM"},
      {"measurement": "Ki", "setting": "[7]", "result": 6.61, "unit": "nM"}
    ]}
  ]
}
